Experimental data from patent publication US20060063736A1, “Compositions and methods for inhibiting mucin-type O-linked glycosylation” (priority 2004, published 2006).

Columns and labels:
[1] = target: T1, mppGalNAcT-2 (Mus musculus, UniProt Q6PB93); assay: ELLA for ppGalNAcTs, mppGalNAcT-2; format: biochemical, murine; conditions: 20 μM UDP-GalNAc, 50 μM EA2 peptide 4
T1 construct: plasmids encoding truncated secreted ppGalNAcTs-1 to −5, -7, -10 and -11; made in house; host or cells: COS-7
Experimental: COS-7 cells were transiently transfected with plasmids encoding truncated secreted ppGalNAcTs-1 to −5, -7, -10 and -11 as previously described. Hagen et al. (1997) J. Biol. Chem. 272:13843-13848. The crude conditioned medium was used as the enzyme source.
Standard reaction conditions for ppGalNAcT assays were as follows. The reaction mixture contained the following components in a final volume of 25 μL: 10 mM MnCl2, 40 mM sodium cacodylate, 40 mM β-mercaptoethanol, 0.1% Triton X-100, pH 6.5, 5 μL of conditioned media, and various concentrations of EA2 peptide 4, UDP-GalNAc and inhibitor. All uridine-based compounds were dissolved in dimethyl sulfoxide (DMSO). […] Reaction rates were linear over the period monitored (20-30 min).
96-Well NeutrAvidin-coated plates were prewashed 3 times with 200 μL of wash buffer (25 mM Tris, 150 mM NaCl, 0.1% bovine serum albumin (BSA) (w/v), and 0.05% Tween (v/v), pH 7.2). […] After 3 washes with 200 μL of PBS, bound HPA-HRP was quantified by the addition of 100 μL of TMB peroxide solution. […] HRP activity was terminated by the addition of 50 μL of 2 N H2SO4 and the resulting solution was analyzed at 450 nm using a UV/Vis microtiter plate reader. The amount of product generated by the ppGalNAcT was extrapolated from absorbance values using an equation fit to the standard curve derived from Origin 6.1 software.

[2] = target: T2, UDP-GlcNAc/GalNAc C4-epimerase (Homo sapiens, UniProt Q14376); conditions: Winans and Bertozzi (2002); cited from earlier work
T2 sequence (Q14376 1-348): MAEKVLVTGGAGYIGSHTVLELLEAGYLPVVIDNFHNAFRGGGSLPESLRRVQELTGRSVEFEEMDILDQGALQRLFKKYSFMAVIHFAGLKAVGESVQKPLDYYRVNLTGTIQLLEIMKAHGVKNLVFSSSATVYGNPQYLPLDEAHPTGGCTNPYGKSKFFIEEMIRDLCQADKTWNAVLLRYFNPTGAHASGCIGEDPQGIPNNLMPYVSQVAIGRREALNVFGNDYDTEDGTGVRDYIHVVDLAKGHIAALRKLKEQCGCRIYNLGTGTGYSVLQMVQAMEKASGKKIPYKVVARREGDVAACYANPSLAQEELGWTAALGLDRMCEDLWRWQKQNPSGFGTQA

[3] = target: T3, β1-4galactosyltransferase (β1-4GalT) (Bos taurus, UniProt P08037); assay: Continuous assay for β1-4GalT activity; format: biochemical, bovine; conditions: for inhibitory activity against β1-4GalT: highest concentration tested (500 μM)
T3 construct: purchased Calbiochem
T3 sequence (P08037 1-402): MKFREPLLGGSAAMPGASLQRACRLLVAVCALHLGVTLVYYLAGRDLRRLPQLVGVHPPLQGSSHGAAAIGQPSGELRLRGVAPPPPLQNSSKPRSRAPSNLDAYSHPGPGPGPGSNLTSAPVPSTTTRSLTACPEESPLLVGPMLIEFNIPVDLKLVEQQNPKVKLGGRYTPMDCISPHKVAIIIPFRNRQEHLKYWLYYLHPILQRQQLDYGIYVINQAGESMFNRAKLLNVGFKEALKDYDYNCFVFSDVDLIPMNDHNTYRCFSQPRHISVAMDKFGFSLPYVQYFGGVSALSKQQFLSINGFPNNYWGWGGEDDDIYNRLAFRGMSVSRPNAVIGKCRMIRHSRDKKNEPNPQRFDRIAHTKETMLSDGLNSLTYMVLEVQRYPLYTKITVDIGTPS
Experimental: (§1) The enzymatic reactions contained the following components in a final volume of 100 μL: 20 mM MnCl2, 100 mM sodium cacodylate, pH 6.5, 5 U of pyruvate kinase, 5 U of lactate dehydrogenase, 2 mM PEP, 0.2 mM NADH with 0.4 mU of β1-4GalT, 1 mM βOMeGlcNAc, 25 μM UDP-Gal or 1.0 mU of α1-3GalT, 1 mM LacNAc, 100 μM UDP-Gal and various concentrations of 1-68A or 2-68A in 2.5% DMSO. The reaction mixtures were incubated at 37° C. for 10 min before the reaction was initiated by the addition of UDP-Gal. The change in absorbance was monitored over 20 min at 340 nm.
(§2) To determine the selectivity of the compounds among the broader family of UDP-sugar utilizing enzymes, 1-68A and 2-68A were tested against bovine β1-4galactosyltransferase (β1-4GalT) and porcine α1-3galactosyltransferase (α1-3GalT), using a previously reported continuous colorimetric assay. Fitzgerald et al. (1970) Anal. Biochem. 36:43-61. Neither compound was active against β1-4GalT or α1-3GalT at the highest concentration tested (500 μM) (Entries 9 and 10, Table 1).

[4] = target: T4, α1-3galactosyltransferase (α1-3GalT) (Sus scrofa, UniProt P50127); assay: Continuous assay for α1-3GalT activity; format: biochemical, porcine; conditions: for inhibitory activity against α1-3GalT: highest concentration tested (500 μM)
T4 construct: purchased Calbiochem
T4 sequence (P50127 whole entry): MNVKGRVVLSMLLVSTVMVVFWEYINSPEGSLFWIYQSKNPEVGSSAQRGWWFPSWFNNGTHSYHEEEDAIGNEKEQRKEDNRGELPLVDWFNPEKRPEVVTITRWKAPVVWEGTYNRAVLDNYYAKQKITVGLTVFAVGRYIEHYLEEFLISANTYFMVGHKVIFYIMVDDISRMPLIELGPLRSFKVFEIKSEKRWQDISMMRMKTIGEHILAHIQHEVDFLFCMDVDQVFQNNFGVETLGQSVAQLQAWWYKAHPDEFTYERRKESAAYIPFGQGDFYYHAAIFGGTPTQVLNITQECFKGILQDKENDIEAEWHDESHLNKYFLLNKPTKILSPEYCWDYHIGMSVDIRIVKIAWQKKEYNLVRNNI
Experimental: as §1, §2

T1 sequence (Q6PB93 25-570 limits assumed): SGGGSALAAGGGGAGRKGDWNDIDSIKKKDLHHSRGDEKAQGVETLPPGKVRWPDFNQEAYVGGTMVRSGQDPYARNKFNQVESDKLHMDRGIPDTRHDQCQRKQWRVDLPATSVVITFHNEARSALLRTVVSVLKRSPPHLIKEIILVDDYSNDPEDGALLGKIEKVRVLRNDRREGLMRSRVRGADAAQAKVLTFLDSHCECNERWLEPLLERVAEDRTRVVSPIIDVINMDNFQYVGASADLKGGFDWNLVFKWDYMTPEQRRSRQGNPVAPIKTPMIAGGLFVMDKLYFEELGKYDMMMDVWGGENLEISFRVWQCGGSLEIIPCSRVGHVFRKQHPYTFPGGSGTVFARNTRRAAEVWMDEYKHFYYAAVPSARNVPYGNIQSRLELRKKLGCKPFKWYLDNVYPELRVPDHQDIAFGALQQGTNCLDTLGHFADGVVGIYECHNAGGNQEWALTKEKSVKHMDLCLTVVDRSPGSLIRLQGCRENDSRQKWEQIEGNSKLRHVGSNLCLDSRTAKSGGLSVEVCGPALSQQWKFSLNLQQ

Row | Compound | IC50 [1] | identified in library screen against UDP-GlcNAc/GalNAc C4-epimerase [2] | IC50 [3] | inhibitory activity against β1-4GalT [3] | IC50 [4] | inhibitory activity against α1-3GalT [4]
1 | O=c1ccn([C@@H]2O[C@H](CON=Cc3ccc(O)c(O)c3O)[C@@H](O)[C@H]2O)c(=O)[nH]1 [1-68A] | 15 ± 1 µM | not identified | > 500 µM | lack of inhibitory activity | > 500 µM | lack of inhibitory activity
2 | O=C(CON=Cc1ccc(O)c(O)c1O)NC[C@H]1O[C@@H](n2ccc(=O)[nH]c2=O)[C@H](O)[C@@H]1O [2-68A] | 18 ± 2 µM | not identified | > 500 µM | lack of inhibitory activity | > 500 µM | lack of inhibitory activity
